ChEMBL document CHEMBL1201861, “Genomics of Drug Sensitity in Cancer screening data, Wellcome Trust Sanger Institute”

How the values were obtained:
Test in all cases: cells
JAR = format: functional, cell-based, Homo sapiens; conditions: Homo sapiens, JAR;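 further: growth inhibition of human JAR cells determined with a cell viability assay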
Description: SANGER: Inhibition of human JAR cell growth in a cell viability assay.

NCI-H1650 = format: functional, cell-based, Homo sapiens; conditions: Homo sapiens, NCI-H1650;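 further: growth inhibition of human NCI-H1650 cells measured by a cell viability assay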
Description: SANGER: Inhibition of human NCI-H1650 cell growth in a cell viability assay.

HuTu80 = format: functional, cell-based, Homo sapiens, HUTU-80; conditions: Homo sapiens, HuTu80;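 further: growth inhibition of HuTu80 human cells, determined with a cell viability readout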
Description: SANGER: Inhibition of human HUTU-80 cell growth in a cell viability assay.

GCT = format: functional, cell-based, Homo sapiens; conditions: Homo sapiens, GCT;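 further: GCT cell line proliferation inhibition, read out with a cell viability assay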
Description: SANGER: Inhibition of human GCT cell growth in a cell viability assay.

KARPAS-45 = format: functional, cell-based; conditions: Homo sapiens;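 further: inhibition of cell line growth, read out through a viability assay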
Description: SANGER: Inhibition of human KARPAS-45 cell growth in a cell viability assay.

8305C = format: functional, cell-based, Homo sapiens; conditions: Homo sapiens, 8305C
Description: SANGER: Inhibition of human 8305C cell growth in a cell viability assay.

SK-MEL-24 = format: functional, cell-based; conditions: Homo sapiens;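 further: growth inhibition read out by a cell viability assay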
Description: SANGER: Inhibition of human SK-MEL-24 cell growth in a cell viability assay.

TE-6 = format: functional, cell-based, Homo sapiens; conditions: Homo sapiens, TE-6;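 further: growth inhibition of TE-6 cells, read out with a cell viability assay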
Description: SANGER: Inhibition of human TE-6 cell growth in a cell viability assay.

LC-2-ad = format: functional, cell-based, Homo sapiens; conditions: Homo sapiens, LC-2-ad;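 further: growth inhibition of human LC-2-ad cells, read out with a cell viability assay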
Description: SANGER: Inhibition of human LC-2-ad cell growth in a cell viability assay.

LN-405 = format: functional, cell-based, Homo sapiens; conditions: Homo sapiens, LN-405
Description: SANGER: Inhibition of human LN-405 cell growth in a cell viability assay.

NOMO-1 = format: functional, cell-based; conditions: Homo sapiens;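 further: growth inhibition of human NOMO-1 cells measured by a cell viability assay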
Description: SANGER: Inhibition of human NOMO-1 cell growth in a cell viability assay.

CTB-1 = format: functional, cell-based; conditions: Homo sapiens
Description: SANGER: Inhibition of human CTB-1 cell growth in a cell viability assay.

D-247MG = format: functional, cell-based, Homo sapiens; conditions: Homo sapiens, D-247MG
Description: SANGER: Inhibition of human D-247MG cell growth in a cell viability assay.

DBTRG-05MG = format: functional, cell-based, Homo sapiens; conditions: Homo sapiens, DBTRG-05MG;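 further: cell viability assay measuring growth inhibition of human DBTRG-05MG cells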
Description: SANGER: Inhibition of human DBTRG-05MG cell growth in a cell viability assay.

MV4-11 = format: functional, cell-based, MV-4-11; conditions: Homo sapiens;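 further: cell viability readout measuring growth inhibition of human MV-4-11 cells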
Description: SANGER: Inhibition of human MV-4-11 cell growth in a cell viability assay.

BB49-HNC = format: functional, cell-based, Homo sapiens; conditions: Homo sapiens, BB49-HNC;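 further: cell viability assay read-out, reported as inhibition of BB49-HNC cell growth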
Description: SANGER: Inhibition of human BB49-HNC cell growth in a cell viability assay.

SW 962 = format: functional, cell-based, Homo sapiens; conditions: Homo sapiens, SW 962;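 further: growth inhibition of human SW962 cells, read out by a cell viability assay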
Description: SANGER: Inhibition of human SW962 cell growth in a cell viability assay.

NCI-H526 = format: functional, cell-based; conditions: Homo sapiens;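 further: growth inhibition of the human NCI-H526 cell line, measured by a cell viability assay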
Description: SANGER: Inhibition of human NCI-H526 cell growth in a cell viability assay.

COLO-792 = format: functional, cell-based, Homo sapiens; conditions: Homo sapiens, COLO-792
Description: SANGER: Inhibition of human COLO-792 cell growth in a cell viability assay.

TGBC24TKB = format: functional, cell-based, Homo sapiens; conditions: Homo sapiens, TGBC24TKB;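 further: growth inhibition of human TGBC24TKB cells, read out with a cell viability assay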
Description: SANGER: Inhibition of human TGBC24TKB cell growth in a cell viability assay.

NCI-H2342 = format: functional, cell-based; conditions: Homo sapiens;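 further: growth inhibition of the cancer cell line, determined with a cell viability assay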
Description: SANGER: Inhibition of human NCI-H2342 cell growth in a cell viability assay.

ETK-1 = format: functional, cell-based, Homo sapiens; conditions: Homo sapiens, ETK-1;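 further: growth inhibition of human ETK-1 cells, read out with a cell viability assay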
Description: SANGER: Inhibition of human ETK-1 cell growth in a cell viability assay.

SCC-15 = format: functional, cell-based, Homo sapiens; conditions: Homo sapiens, SCC-15;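 further: growth inhibition of SCC-15 cells, read out with a cell viability assay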
Description: SANGER: Inhibition of human SCC-15 cell growth in a cell viability assay.

LB831-BLC = format: functional, cell-based, Homo sapiens; conditions: Homo sapiens, LB831-BLC;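 further: growth inhibition of LB831-BLC cells, read out with a cell viability assay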
Description: SANGER: Inhibition of human LB831-BLC cell growth in a cell viability assay.

GR-ST = format: functional, cell-based; conditions: Homo sapiens
Description: SANGER: Inhibition of human GR-ST cell growth in a cell viability assay.

UACC-893 = format: functional, cell-based, Homo sapiens; conditions: Homo sapiens, UACC-893
Description: SANGER: Inhibition of human UACC-893 cell growth in a cell viability assay.

ES5 = format: functional, cell-based, Homo sapiens; conditions: Homo sapiens, ES5;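 further: growth inhibition of human ES5 cells, read out by a cell viability assay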
Description: SANGER: Inhibition of human ES5 cell growth in a cell viability assay.

RMG-I = format: functional, cell-based, Homo sapiens; conditions: Homo sapiens, RMG-I;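 further: growth inhibition of human RMG-I cells, read out with a cell viability assay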
Description: SANGER: Inhibition of human RMG-I cell growth in a cell viability assay.

KG-1 = format: functional, cell-based; conditions: Homo sapiens;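 further: growth inhibition of KG-1 cells, read out by a cell viability assay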
Description: SANGER: Inhibition of human KG-1 cell growth in a cell viability assay.

MOLT-16 = format: functional, cell-based; conditions: Homo sapiens;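 further: growth inhibition of human MOLT-16 cells, read out with a cell viability assay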
Description: SANGER: Inhibition of human MOLT-16 cell growth in a cell viability assay.

MC116 = format: functional, cell-based; conditions: Homo sapiens;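 further: growth inhibition of MC116 cells, read out with a cell viability assay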
Description: SANGER: Inhibition of human MC116 cell growth in a cell viability assay.

SW-620 = format: functional, cell-based, Homo sapiens; conditions: Homo sapiens, SW-620;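 further: growth inhibition of human SW-620 cells, measured by a cell viability assay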
Description: SANGER: Inhibition of human SW620 cell growth in a cell viability assay.

SW684 = format: functional, cell-based, Homo sapiens; conditions: Homo sapiens, SW684;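 further: growth inhibition of human SW684 cells, measured by a cell viability assay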
Description: SANGER: Inhibition of human SW684 cell growth in a cell viability assay.

LoVo = format: functional, cell-based; conditions: Homo sapiens;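 further: growth inhibition of human LoVo cells, read out with a cell viability assay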
Description: SANGER: Inhibition of human LoVo cell growth in a cell viability assay.

HuO-3N1 = format: functional, cell-based, Homo sapiens; conditions: Homo sapiens, HuO-3N1;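 further: cell viability readout used to measure how strongly compounds suppress proliferation of human HuO-3N1 cells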
Description: SANGER: Inhibition of human HuO-3N1 cell growth in a cell viability assay.

BT-20 = format: functional, cell-based, Homo sapiens; conditions: Homo sapiens, BT-20;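 further: cell viability assay measuring suppression of growth in human BT-20 cells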
Description: SANGER: Inhibition of human BT-20 cell growth in a cell viability assay.

NB5 = format: functional, cell-based, Homo sapiens; conditions: Homo sapiens, NB5;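 further: growth inhibition of NB5 cells, read out as cell viability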
Description: SANGER: Inhibition of human NB5 cell growth in a cell viability assay.

NCI-H1092 = format: functional, cell-based; conditions: Homo sapiens;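 further: cell growth inhibition measured with a cell viability assay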
Description: SANGER: Inhibition of human NCI-H1092 cell growth in a cell viability assay.

Daoy = format: functional, cell-based, Homo sapiens; conditions: Homo sapiens, Daoy;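 further: daoy cell growth inhibition, read out as cell viability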
Description: SANGER: Inhibition of human Daoy cell growth in a cell viability assay.

GB-1 = format: functional, cell-based, Homo sapiens; conditions: Homo sapiens, GB-1;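 further: growth of GB-1 cells judged by a viability assay, IC50 marks the concentration inhibiting growth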
Description: SANGER: Inhibition of human GB-1 cell growth in a cell viability assay.

KURAMOCHI = format: functional, cell-based; conditions: Homo sapiens;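 further: growth inhibition of KURAMOCHI cells, read out with a cell viability assay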
Description: SANGER: Inhibition of human KURAMOCHI cell growth in a cell viability assay.

RVH-421 = format: functional, cell-based, Homo sapiens; conditions: Homo sapiens, RVH-421
Description: SANGER: Inhibition of human RVH-421 cell growth in a cell viability assay.

SF-126 = format: functional, cell-based, Homo sapiens; conditions: Homo sapiens, SF-126;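 further: growth inhibition of human SF126 cells, read out with a cell viability assay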
Description: SANGER: Inhibition of human SF126 cell growth in a cell viability assay.

KYSE-410 = format: functional, cell-based, Homo sapiens; conditions: Homo sapiens, KYSE-410;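 further: growth inhibition of KYSE-410 cells, measured through a cell viability readout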
Description: SANGER: Inhibition of human KYSE-410 cell growth in a cell viability assay.

SiHa = format: functional, cell-based, Homo sapiens; conditions: Homo sapiens, SiHa;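 further: Viability-based readout of growth inhibition in SiHa cells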
Description: SANGER: Inhibition of human SiHa cell growth in a cell viability assay.

DJM-1 = format: functional, cell-based, Homo sapiens; conditions: Homo sapiens, DJM-1;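 further: growth inhibition of human DJM-1 cells, read out by a cell viability assay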
Description: SANGER: Inhibition of human DJM-1 cell growth in a cell viability assay.

EGI-1 = format: functional, cell-based, Homo sapiens; conditions: Homo sapiens, EGI-1;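 further: cell viability readout used to gauge growth inhibition of EGI-1 cells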
Description: SANGER: Inhibition of human EGI-1 cell growth in a cell viability assay.

G-402 = format: functional, cell-based, Homo sapiens; conditions: Homo sapiens, G-402
Description: SANGER: Inhibition of human G-402 cell growth in a cell viability assay.

MSTO-211H = format: functional, cell-based, Homo sapiens; conditions: Homo sapiens, MSTO-211H
Description: SANGER: Inhibition of human MSTO-211H cell growth in a cell viability assay.

OAW-28 = format: functional, cell-based, Homo sapiens; conditions: Homo sapiens, OAW-28;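 further: growth inhibition of OAW-28 cells, read out with a cell viability assay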
Description: SANGER: Inhibition of human OAW-28 cell growth in a cell viability assay.

COLO-320-HSR = format: functional, cell-based; conditions: Homo sapiens;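 further: growth inhibition of COLO-320-HSR cells, determined with a cell viability assay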
Description: SANGER: Inhibition of human COLO-320-HSR cell growth in a cell viability assay.

KM-H2 = format: functional, cell-based; conditions: Homo sapiens;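 further: growth inhibition of KM-H2 cells, read out by a cell viability assay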
Description: SANGER: Inhibition of human KM-H2 cell growth in a cell viability assay.

For `CN(c1ncccc1CNc1nc(Nc2ccc3c(c2)CC(=O)N3)ncc1C(F)(F)F)S(C)(=O)=O` [PF-00562271], the IC50 (JAR) was greater than 2560 nM, the IC50 (NCI-H1650) was greater than 2560 nM and the IC50 (HuTu80) was 1450 nM. It also gave an IC50 (GCT) greater than 2560 nM, an IC50 (KARPAS-45) greater than 2560 nM and an IC50 (8305C) of 1100 nM. It also gave an IC50 (SK-MEL-24) greater than 2560 nM, an IC50 (TE-6) greater than 2560 nM and an IC50 (LC-2-ad) of 2270 nM. It also gave an IC50 (LN-405) greater than 2560 nM, an IC50 (NOMO-1) greater than 2560 nM and an IC50 (CTB-1) greater than 2560 nM. For the same compound, the IC50 (D-247MG) was greater than 2560 nM, the IC50 (DBTRG-05MG) was greater than 2560 nM and the IC50 (MV4-11) was 277 nM. It also gave an IC50 (BB49-HNC) greater than 2560 nM, an IC50 (SW 962) greater than 2560 nM and an IC50 (NCI-H526) greater than 2560 nM. The IC50 (COLO-792) was greater than 2560 nM, the IC50 (TGBC24TKB) was greater than 2560 nM and the IC50 (NCI-H2342) was greater than 2560 nM. For the same compound, the IC50 (ETK-1) was 2280 nM, the IC50 (SCC-15) was greater than 2560 nM and the IC50 (LB831-BLC) was 2010 nM. It also gave an IC50 (GR-ST) greater than 2560 nM, an IC50 (UACC-893) greater than 2560 nM and an IC50 (ES5) greater than 2560 nM. It also gave an IC50 (RMG-I) greater than 2560 nM, an IC50 (KG-1) greater than 2560 nM and an IC50 (MOLT-16) greater than 2560 nM. The IC50 (MC116) was greater than 2560 nM, the IC50 (SW-620) was greater than 2560 nM and the IC50 (SW684) was greater than 2560 nM. The IC50 (LoVo) was greater than 2560 nM, the IC50 (HuO-3N1) was greater than 2560 nM and the IC50 (BT-20) was greater than 2560 nM. For the same compound, the IC50 (NB5) was greater than 2560 nM, the IC50 (NCI-H1092) was greater than 2560 nM and the IC50 (Daoy) was greater than 2560 nM. It also gave an IC50 (GB-1) greater than 2560 nM, an IC50 (KURAMOCHI) greater than 2560 nM and an IC50 (RVH-421) greater than 2560 nM. The IC50 (SF-126) was greater than 2560 nM, the IC50 (KYSE-410) was greater than 2560 nM and the IC50 (SiHa) was greater than 2560 nM. For the same compound, the IC50 (DJM-1) was greater than 2560 nM, the IC50 (EGI-1) was greater than 2560 nM and the IC50 (G-402) was greater than 2560 nM. For the same compound, the IC50 (MSTO-211H) was greater than 2560 nM, the IC50 (OAW-28) was greater than 2560 nM and the IC50 (COLO-320-HSR) was greater than 2560 nM. It also gave an IC50 (KM-H2) greater than 2560 nM.
